Results reported in patent publication US11692175B2, “Methods for generation of pluripotent and multipotent cells” (The USA, as represented by the Secretary, Dept. of Health …, priority 2012, dated 2023).
Several values for one entry are separate records, joined by “and”; a condition that tells them apart may be missing. Equal values may be shown once.

What was measured:
WT Jurkat T cells = experiment: QPCR analysis of c-Myc mRNA in WT Jurkat T cells treated with CD47 binding peptides; type: cell-based, human; settings: for c-Myc expression (FIG. 21B): 1 μM or 10 μM
Method: FIGS. 21A and B are a pair of graphs showing QPCR analysis of c-Myc mRNA expression. WT Jurkat T cells were treated with the CD47 binding peptide 459 (also known as peptide 4N1) or control peptide 761 at 1 μM or 0.1 μM (FIG. 21A). WT Jurkat T cells were also treated with the CD47-binding peptide 7N3 or the control peptide 604 at 1 μm or 10 μM (FIG. 21B).
(§1) RNA extraction and Real Time PCR: Total RNA was extracted using TRIzol® reagent (Invitrogen, Rockville, Md.) 24-36 hours after transfection or as indicated. Harvested mouse tissues were frozen in liquid nitrogen or placed into RNA Later™ RNA Stabilization Reagent (Ambion, Life Technologies, Grand Island, N.Y.). Whole organs (lungs, spleen, kidney, testis, skeletal muscle, brain, heart, and liver) were homogenized in TRIzol® reagent, and RNA was isolated, cDNA was prepared using First Maxima First Strand cDNA Synthesis kit for RT-qPCR (Fermentas Life Sciences, Glen Burnie, Md.). Real Time PCR was performed using the primers listed herein as SEQ ID NOs: 3-34, and SYBR Green PCR master reaction mix (AB applied Sciences, Life Technologies, Grand Island, N.Y.) on an MJ Research OPTICON I instrument (Bio-Rad) with the following amplification program: 95° C. for 15 minutes, followed by 40 cycles of 95° C. for 15 seconds, 58° C. for 20 seconds, 72° C. for 25 seconds, and 7° C. for 1 minute. Melting curves were performed for each product from 30° C. to 95° C. reading every 0.5° C. with a 6-second dwell time. The fold changes in mRNA expression were calculated by normalizing to hypoxanthine phosphoribosyltransferase (HPRT1) and TATA-box binding protein associated factor (TAF9) for mouse tissues and endothelial cells, or β-2 microglobulin (B2M) mRNA levels for spleen and isolated splenocytes. B2M was used for normalization of mRNA levels in human cells. Note that the total RNA yield per cell was higher for all CD47-null and CD47-deficient cells and tissues as compared to WT.

HUVEC [1] = experiment: MTS proliferation assay of treated HUVEC; type: cell-based, human; settings: 6 days post-treatment
Method: Cell proliferation assays: Equal numbers of mouse lung endothelial cells from WT and CD47 (Passage 1) were plated in 96 well plates using RPMI+1% FBS. After 72 hours, net cell proliferation was assessed by the increase in formazan absorbance versus controls assessed at time 0 using Cell Titer 96R aqueous MTS kit (Promega, Madison, Wis.). DNA synthesis was measured using a BrdU Assay (EMD Biosciences, Billerica, Mass.).
Proliferative capacities of the treated HUVEC (CD47 morpholino, 7N3 peptide, or 604 control peptide) were assessed using MTS assays.

Jurkat T cells = experiment: c-Myc mRNA in Jurkat T cells treated with thrombospondin-1 or CD47-binding peptide (real time PCR); type: cell-based, human; settings: for c-Myc levels (FIG. 7E): CD47-binding peptide vs control peptide
Method: as §1
Modulation of stem cell transcription factors by thrombospondin-1: Jurkat and JinB8 cells were centrifuged and re-suspended in RPMI+1% FBS at 10^6 cells/ml. Cells were plated in 12 well plates and treated with 1 μg/ml (2.2 nM) TSP1 using the indicated times and concentrations, and total RNA was isolated using TRIzol® reagent.

TSP1 null cells = experiment: Sustained proliferation of TSP1 null murine lung endothelial cells; type: cell-based, mouse; settings: relative to WT cells
Source text: Cell culture and reagents: Thrombospondin-1 null (Lawler et al., J Clin Invest 101, 982-992, 1998) CD47 null mice (Lindberg et al., Science 274, 795-798, 1996) extensively back-crossed onto a C57Bl/6J background and WT mice were maintained in a pathogen-free environment according to protocols approved by the NCI Animal Care and Use Committee. Mouse lung endothelial cells were isolated and their purity verified as described previously (Zhou et al., Oncogene 25, 536-545, 2006). These conditions were previously documented to reproducibly yield >95% pure endothelial cells at passage two (CD31+, smooth muscle actin-). Mouse lung endothelial cells were cultured at 37° C. with 5% CO2 using Endothelial Growth Medium-2 (EGM2) (Thermo Scientific Fisher. Inc., Waltham, Mass.). Cell populations from mouse spleens were separated using the Pan T cell Isolation (130-095-130), CD4 (L3T4) (130-049-201), CD8a (Ly-2) (130-049-401) CD11b (130-049-601), CD19 microbead kits (130-052-201) (MACS, Miltenyi Biotech Germany).
(§2) Human umbilical vein endothelial cells (HUVEC), which express CD47, normally become senescent with repeated passage in tissue culture (FIG. 16A).

HUVECs = experiment: Real-time PCR of HUVECs treated for three weeks with neural medium and 7N3 peptide or B6H12 antibody; type: cell-based, human
Method: as §1, with “WT. […]” for “WT.”

HUVEC [2] = experiment: Sustained proliferation / self-renewal of HUVEC in continuous culture; type: cell-based, human; settings: 7N3 10 μM; B6H12 1 μg/ml
Source text: as §2
Therefore, antisense suppression of CD47 is sufficient to induce reprogramming of primary endothelial cells of a mesodermal lineage into an ectodermal lineage.

JinB8 cells = experiment: c-Myc mRNA in CD47-deficient JinB8 cells treated with thrombospondin-1; type: cell-based, human; settings: Jurkat cells lacking CD47; at 24 hours
Method: as §1, with “B2M was used for normalization of mRNA levels in human cells. Note that the total RNA yield per cell was higher for all CD47-null and CD47-deficient cells and tissues as compared to WT.” left out

[3] = tested on: JinB8 cells re-expressing CD47; experiment: c-Myc expression in JinB8 cells re-expressing CD47 treated with thrombospondin-1; type: cell-based, human; settings: CD47 re-expressed in JinB8 cells
Method: JINB8 cells were transfected with CD47-V5 construct using Amaxa™ Nucleofector™ (Lonza) non-viral transfection technology. The transfection efficiency was determined by flow Cytometry. The CD47-V5 transfected cells were purified using magnetic beads bound with human CD47 antibody (B6H12). The transfected cells were loaded onto MACS column which was placed in the magnetic field of a MACS® separator (Miltenyi Biotec). The magnetic bead labeled CD47^+ cells were retained on the column. The unlabeled cells ran through and were depleted from CD47^+ cells. After removal of the column, the CD47^+ cells bound to magnetic beads were eluted. The pure population of CD47^+ cells was stably cultured using G418 (250 μg/ml). The pure population of CD47^+ and Jurkat cells were centrifuged and re-suspended in RPMI with 1% FBS at 10^6 cells/ml. Cells were plated in 12 well plates and treated with 1 μg/ml (2.2 nM) thrombospondin-1, and total RNA was isolated using TRIzol®. The relative gene expression of c-MYC was measured using GAPDH as a control.

Human rTEC = experiment: RT-PCR of self-renewal genes in human renal tubular epithelial cells; type: cell-based
Method: FIG. 25 is a series of graphs showing that blockade of CD47 elevates self-renewal transcription factors in human renal cells. Human rTEC were treated with TSp1 (2.2 nmol/L)±a CD47 monoclonal Ab (clone B6H12, 1 μg/ml) and RT-PCR performed for the indicated targets (top, c-Myc; middle. Sox2; bottom, Klf4). Results are the mean (±S.E.M.) of three separate experiments.
TSP1 inhibits self-renewal signals in primary human renal tubular epithelial cells, and CD47 blockade therapy elevates self renewal genes in human renal cells: It is not clear what role the TSP1-CD47 signal cascade played on self-renewal signaling in specific renal cell types. We wanted to confirm in human cells that activation of CD47 inhibits self-renewal genes. Renal tubular epithelial cells (rTEC) are a primary source of injury in the kidney. Human rTEC were treated with a low concentration of exogenous TSP1 (2.2 nmol/L) and found suppression of self-renewal genes including cMyc and Sox2 and Klf4 (FIG. 25). […] Thus, in human renal cells CD47 blockade increases the stem cell-pluripotent capacity of renal cells.

[4] = real-time PCR, HUVECs three weeks in neural medium, two values per treatment

Q: Which “c-Myc expression (FIG. 21B)” value (WT Jurkat T cells) does the source give for “FIRGGMYEGKK (Synthetic peptide 604) [compound 604]” here?
A: The value was “did not”.

Q: What about the “proliferation (MTS)” value (HUVEC [1]) of the same substance?
A: Its value is “decreased proliferation”.

Q: And the “c-Myc levels (FIG. 7E)” value (Jurkat T cells)?
A: The value was “inactive”.

Q: With FIRVVMYEGKK (Synthetic peptide 7N3) as the substance, how does the proliferative response (TSP1 null cells) read?
A: Its proliferative response is “their response was less than the WT cells”.

Q: And the “c-Myc expression (FIG. 21B)” value (WT Jurkat T cells)?
A: The value was “more dramatic increase”.

Q: What about the “expression of mRNAs encoding c-Myc and other stem cell transcription factors (Sox2, Klf4, Oct4) and nestin” value (HUVECs; EBM serum free (neural basal) medium for 3 weeks, in words) of the same substance?
A: The value was “high expression”.

Q: What about the “Oct4 C(t)” value (HUVECs; [4]) of the same substance?
A: Its value is 34.48 and 34.

Q: What about the “c-Myc C(t)” value (HUVECs; [4]) of the same substance?
A: The value was 30.19 and 18.49.

Q: What about the “klf4 C(t)” value (HUVECs; [4]) of the same substance?
A: The value was 26.31 and 26.17.

Q: What about the “nestin C(t)” value (HUVECs; [4]) of the same substance?
A: The value was 31.6104 and 31.32.

Q: What about the “sox2 C(t)” value (HUVECs; [4]) of the same substance?
A: The value was 28.09 and 29.

Q: And the “proliferation (MTS)” value (HUVEC [1])?
A: Its value is “enhanced proliferation”.

Q: And the “c-Myc levels (FIG. 7E)” value (Jurkat T cells)?
A: Its value is “suppression”.

Q: And the sustained proliferation (HUVEC [2])?
A: Its sustained proliferation is “dramatically increased”.

Q: “RFYVVMWK (Synthetic peptide - 4N1) [compound 459]” was tested. Which “c-Myc mRNA expression (FIG. 21A)” value (WT Jurkat T cells; 0.1 μM, at 72 hours, relative to control peptide 761) did it give?
A: The value was “significantly increased”.

Q: For “TSP1: Human TSP1 purified from the supernatant of thrombin-activated platelets; CD47 ligand”, which “c-Myc mRNA levels” value (JinB8 cells) is on record?
A: The value was “not significantly inhibited”.

Q: What about the c-Myc expression [3] of the same substance?
A: The c-Myc expression was “reduces c-MYC expression”.

Q: And the c-Myc expression ([3]; listed as thrombospondin-1)?
A: The c-Myc expression was “restored the ability of thrombospondin-1 to inhibit c-Myc expression”.

Q: What about the “expression of self-renewal transcription genes” value (Human rTEC; TSP1 2.2 nM, low passage cells) of the same substance?
A: Its value is “decreased expression of self-renewal transcription genes”.

Q: And the Klf4 expression (Human rTEC; TSP1 2.2 nmol/L, B6H12 1 μg/ml)?
A: Its Klf4 expression is “suppression”.

Q: What about the Sox2 expression (Human rTEC; TSP1 2.2 nmol/L, B6H12 1 μg/ml) of the same substance?
A: The Sox2 expression was “suppression”.

Q: And the cMyc expression (Human rTEC; TSP1 2.2 nmol/L, B6H12 1 μg/ml)?
A: The cMyc expression was “suppression”.

Q: And the “c-Myc levels, time course” value (Jurkat T cells; 2.2 nM thrombospondin-1)?
A: Its value is “transiently induced but then strongly inhibited”.

Q: What about the “c-MYC expression (FIG. 14D)” value (Jurkat T cells; Jurkat cells) of the same substance?
A: The value was “reduces c-MYC expression”.

Q: What about the “concentration sufficient to inhibit c-Myc expression” value (Jurkat T cells; at 24 hours) of the same substance?
A: Its value is “Picomolar concentrations”.
